Test results taken from patent US20210188763A1, “COMPOUNDS AND METHODS FOR HEMATOPOIETIC REGENERATION” (The Regents of the University of California, priority 2017, published 2021).

Assays:
irradiated mice = test: Survival and HSC regeneration of irradiated mice; type: in vivo; details: for Survival of irradiated mice: lethal dose irradiation (750 cGy)
Source text: (§1) A) CFU-GEMMs produced by TSF media vs. TSF+GJ001 (p=0.001). B) Percentage of BM KSL cells expressing Rac1GTP (p=0.008). C) Survival of mice irradiated with 750 cGy followed by treatment with DJ001 or vehicle (p=0.0007). D) % BM KSL cells (blue) and % ckit^+sca-1^−lin^− progenitors (gray) at day +21 in irradiated mice.
10 week old female C57BL/6 mice were irradiated with 750 cGy TBI, which is lethal for approximately 50% of C57BL/6 mice by day +30 (LD50/30), using a Shepherd Cesium-137 irradiator. Twenty four hours post-irradiation, mice were administered daily subcutaneous injections of 5 mg/kg DJ001 (or DJ009) or vehicle in a volume of 100 μL for 10 days. DJ001 injections were prepared in PBS, 0.5% Tween 80, and 10% DMSO. Corresponding vehicle injections contained PBS, 10% DMSO and 0.5% Tween 80. PB complete blood counts were measured using a Hemavet 950 instrument (Drew Scientific) at day +10 post-irradiation. For hematopoietic analysis, BM cells were collected at day +10 post-irradiation. To study whether DJ001 increased survival rates through activation of RAC signaling, the RAC inhibitor, EHT1864 (Selleckchem), was dissolved in PBS and administered intraperitoneally, 40 mg/kg every other day, to 750 cGy irradiated mice until day +10. For DJ009 studies, ten week old female C57BL/6 mice were irradiated with 550 cGy TBI and then given daily subcutaneous injections of 5 mg/kg of DJ009 or vehicle in a volume of 100 μL for 3 days. DJ009 injections were prepared in PBS, 0.5% Tween 80, and 10% DMSO. Vehicle injections contained 10% DMSO and 0.5% Tween 80. At day +3 post 550 cGy irradiation, we collected PB and BM cells for CBCs and hematopoietic analysis. Exemplary results of this assay are depicted in FIG. 8 and FIG. 17.

Rac1 [1] = test: Rac1 activation assay (G-LISA); type: cell-based; details: cells incubated 2 minutes at 1 and 10 μg/mL
Protocol: Cell cultures were incubated with each tested compound for 2 minutes at concentrations of 1 and 10 μg/mL, after which the cells were tested for Rac1 activation using a G-LISA activation assay. The cells were lysed and the lysates introduced into wells containing Rac-GTP-binding protein, then sequentially incubated with anti-Rac1 antibody and a horseradish peroxidase-linked secondary antibody. The amount of horseradish peroxidase was then quantitated to evaluate the Rac1 activation potency of each compound studied.

Rac1 [2] = test: Rac1 signaling in HSCs (BM KSL cells expressing Rac1GTP); type: cell-based
Protocol: as §1
Intracellular flow cytometric analysis was performed on irradiated (300 cGy) or non-irradiated, sorted KSL cells after treatment with 1 μg/mL DJ001 or control (equal volumes of DMSO) for 24 hours. At 24 hours after irradiation, cells were fixed with 4% PFA for 10 min, followed by permeabilization using 0.25% saponin in PBS. Cells were washed again and stained with antibody at the recommended concentrations for 30 minutes at room temperature. Intracellular antibodies and phospho-flow antibodies used were: FITC-conjugated anti-BCL-XL (Abcam #ab26148), active RAC1-GTP antibody (NewEast Biosciences #26903), and anti-PAK1 (phospho S144)+PAK2 (phospho S141)+PAK3 (phospho S154) antibody (Abcam #ab40795).

PTPRS = target: T1, PTPRS (Homo sapiens, UniProt Q13332); test: In vitro phosphatase assay (modified Malachite Green Assay); type: biochemical; details: substrate titration of PTPσ; Vmax inhibited, Km constant
T1 construct: The two interacellular catalytic domains (D1D2) of PTPRS were cloned into a pET28a vector; made in house; host or cells: E. coli BL21
T1 sequence (Q13332 1304-1948 limits assumed): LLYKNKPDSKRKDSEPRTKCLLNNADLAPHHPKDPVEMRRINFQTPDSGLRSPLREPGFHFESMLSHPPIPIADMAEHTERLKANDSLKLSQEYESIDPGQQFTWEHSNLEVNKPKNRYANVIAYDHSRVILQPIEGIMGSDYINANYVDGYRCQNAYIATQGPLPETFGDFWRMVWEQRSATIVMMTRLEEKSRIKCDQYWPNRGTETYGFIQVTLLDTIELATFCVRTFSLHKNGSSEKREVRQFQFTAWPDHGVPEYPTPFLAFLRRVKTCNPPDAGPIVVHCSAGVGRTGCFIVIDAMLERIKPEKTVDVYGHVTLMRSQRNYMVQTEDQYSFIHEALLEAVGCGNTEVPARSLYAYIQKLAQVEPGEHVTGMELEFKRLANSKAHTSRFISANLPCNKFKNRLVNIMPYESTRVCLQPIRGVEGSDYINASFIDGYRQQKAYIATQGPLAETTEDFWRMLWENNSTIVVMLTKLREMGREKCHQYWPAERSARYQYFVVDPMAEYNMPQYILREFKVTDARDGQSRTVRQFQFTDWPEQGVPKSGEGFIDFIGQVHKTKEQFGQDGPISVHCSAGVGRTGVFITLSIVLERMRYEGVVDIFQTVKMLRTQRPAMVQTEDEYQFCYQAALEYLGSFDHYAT
Protocol: The two interacellular catalytic domains (D1D2) of PTPRS were cloned into a pET28a vector and overexpressed in E. coli BL21 and purified as described in Jeon T J, et al. Structure of the Catalytic Domain of Protein Tyrosine Phosphatase Sigma in the Sulfenic Acid Form. Molecules and Cells. 2013; 36(1):55-61. doi:10.1007/s10059-013-0033-x. Enzymatic activity of PTPRS was assayed using a modified version of the Malachite Green Assay (described in Lorenz U. Protein Tyrosine Phosphatase Assays. Current protocols in immunology/edited by John E Coligan. [et al]. 2011; CHAPTER: Unit-11.7. doi:10.1002/0471142735.im1107s93) and the Tyrosine Phosphatase Assay Kit (Promega Coorperation). Unless stated otherwise, standard assays were carried out using 50 nM PTPRS protein in 1× Buffer (10 mM Tris, 5 mM MgCl2, 10 mM NaCl, 0.02% Tween) and Tyr Phosphopeptide as substrate (100 uM for FIG. 1 and 50-1200 uM in FIG. 2). […]
For IC50 determination, rates normalized relative to uninhibited controls (DMSO) were plotted against compound concentration and fitted using a four-parameter nonlinear regression curve fit ((y=[(A−D)(1+{xC−1}B)−1]+D), (Prism 6.0, Graphpad Software). For mechanism studies and determination of the enyzme's Km and Vmax, data were analyzed using a nonlinear regression fit according to classical Mechaelis-Menten kinetics model Y=Vmax*X/(Km+X) (Prism 6.0, Graphpad Software).

[3] = system: hematopoietic colony formation; test: Hematopoietic colony formation (CFC assay); type: cell-based
Protocol: CFC assays (colony-forming unit-granulocyte monocyte (CFU-GM), burst-forming unit-erythroid (BFU-E), and colony-forming unit-granulocyte erythroid monocyte megakaryocyte (CFU-GEMM) were performed using MethoCult GF M3434 (Stemcell Technologies), as we have previously described^1,5. For all in vitro assays, BM CD34^−KSL cells, KSL cells, and Lin cells were cultured in TSF media (IMDM, 10% FBS, 1% pen-strep, 20 ng/mL recombinant mouse Thrombopoietin (TPO), 125 ng/mL recombinant mouse Stem Cell Factor (SCF), 50 ng/mL recombinant mouse Flt3 ligand) and treated as described. Recombinant mouse SCF, Flt-3 ligand, and TPO were purchased from R&D Systems. For competitive repopulation assays, BM cells were isolated from donor 10-12 week old female CD45.2^+ mice. Recipient 10 week old female CD45.1^+ B6.SJL mice were irradiated with 950 cGy TBI using a Cs137 irradiator, and donor BM cells were administered via tail vein injection along with a competing dose of 1×10^5 non-irradiated host BM cells. Multilineage donor hematopoietic cell engraftment was measured in the PB by flow cytometry.

SMILES: O=C(/C=C\Nc1cccc([N+](=O)[O-])c1)c1ccccc1 [DJ001, (Z)-3-((3-nitrophenyl)amino)-1-phenylprop-2-en-1-one]
- HSC regeneration in irradiated mice (irradiated mice; irradiated mice): accelerates HSC regeneration
- Survival of irradiated mice (irradiated mice): dramatically increases mice survival
- Rac1 Activation (Rac1 [1]): yes
- Rac1 signaling in HSCs (Rac1 [2]): activates Rac1 signaling
- Mechanism of inhibition (PTPRS): classical noncompetitive inhibitor

SMILES: O=C(/C=C\Nc1cccc(F)c1)c1ccccc1 [DJ002]
- Rac1 Activation (Rac1 [1]): no

SMILES: O=C(/C=C\Nc1cccc(C(F)(F)F)c1)c1ccccc1 [DJ003]
- Survival of irradiated mice (irradiated mice): improves survival of irradiated mice
- Rac1 Activation (Rac1 [1]): yes
- Hematopoietic colony formation [3]: increases hematopoietic colony formation

SMILES: Cc1cccc(N/C=C\C(=O)c2ccccc2)c1 [DJ004]
- Rac1 Activation (Rac1 [1]): yes

SMILES: COc1cccc(N/C=C\C(=O)c2ccccc2)c1 [DJ005]
- Rac1 Activation (Rac1 [1]): no

SMILES: CC(=O)c1cccc(N/C=C\C(=O)c2ccccc2)c1 [DJ006]
- Rac1 Activation (Rac1 [1]): no

SMILES: O=C(/C=C\Nc1cccc(-c2ccccc2)c1)c1ccccc1 [DJ007]
- Rac1 Activation (Rac1 [1]): no

SMILES: CN(C)c1cccc(N/C=C\C(=O)c2ccccc2)c1 [DJ008]
- Rac1 Activation (Rac1 [1]): no

SMILES: O=C(/C=C\Nc1cc(F)cc(F)c1)c1ccccc1 [DJ009, (Z)-3-((3,5-difluorophenyl)amino)-1-phenylprop-2-en-1-one]
- Rac1 Activation (Rac1 [1]): yes

SMILES: Cc1cc(C)cc(N/C=C\C(=O)c2ccccc2)c1 [DJ011]
- Rac1 Activation (Rac1 [1]): yes

SMILES: COc1cc(N/C=C\C(=O)c2ccccc2)cc(OC)c1 [DJ012]
- Rac1 Activation (Rac1 [1]): yes

SMILES: O=C(/C=C\Nc1ccccc1)c1ccccc1 [DJ013]
- Rac1 Activation (Rac1 [1]): yes

SMILES: CC(C)(C)[Si](C)(C)Oc1cccc(N/C=C\C(=O)c2ccccc2)c1 [DJ014]
- Rac1 Activation (Rac1 [1]): yes

SMILES: O=C(/C=C\Nc1cccc(O)c1)c1ccccc1 [DJ015]
- Rac1 Activation (Rac1 [1]): yes

SMILES: CN(C)S(=O)(=O)c1cccc(N/C=C\C(=O)c2ccccc2)c1 [DJ016]
- Rac1 Activation (Rac1 [1]): no

SMILES: CCCCN/C=C\C(=O)c1ccccc1 [DJ017]
- Rac1 Activation (Rac1 [1]): no

SMILES: O=C(/C=C\NCc1ccco1)c1ccccc1 [DJ018]
- Rac1 Activation (Rac1 [1]): no

SMILES: CC(C)(C)N/C=C\C(=O)c1ccccc1 [DJ019]
- Rac1 Activation (Rac1 [1]): no
